Where only a bound is given, the exact number is not on record here.

The test system of one assay is Vero monkey kidney cells. Nature of the assay: Vero cell cytotoxicity (MTT assay, 72 h). Format: cell-based. The following applies: Primates, IC50 ± SD. The procedure: To assess the test compounds’ cytotoxicity, MTT assays were performed. The Vero cells and macrophages were cultivated for 24 h at 37 °C in RPMI 1640 media with 10% FBS and 5% CO2 in 96-well plates (5 × 10^3 cells/well/200 μL). Following a washing step with PBS, the cells were treated with test compounds at different concentrations (50, 25, 12.5, 6.25, 3.13, 1.65, and 0.75 μg /mL) in 10% FBS medium for 72 h. Negative control cells were only given media with 2% FBS and 1% DMSO. The cells were cultured for 4 h after the supernatant was disposed of, and 50 μL of RPMI 1640 media containing 14 μL MTT (5 mg/mL) was added. After removing the supernatant once again, 150 μL of DMSO was added. IC50 values were determined from three independent experiments.
In general terms: Tetrazolium assays rely on reduction of a dye to a coloured formazan, in cell work by metabolically active cells.

In a further assay the test system is L. major promastigotes. Description: Leishmania major promastigote assay (MTT, 72 h). Type of assay: cell-based. The method, then:
(§1) Promastigotes of L. major were obtained from a patient (February 2016) and cultured at 26 °C in Schneider’s Drosophila medium (Invitrogen, Carlsbad, CA, USA) supplemented with 10% heat-inactivated fetal bovine serum (FBS, Invitrogen, USA) and antibiotics, with weekly transfers in a tissue culture flask. Promastigotes were cryopreserved in liquid nitrogen at a concentration of 3 × 10^6 parasites/mL. Virulent L. major parasites were maintained by serial passage in female BALB/c mice, achieved by injecting hind footpads with 1 × 10^6 stationary-phase promastigotes. Amastigotes were isolated from the mice after 8 weeks, then converted to promastigotes by cultivation at 26 °C in Schneider’s medium containing 10% FBS and antibiotics. Amastigote-derived promastigotes, which underwent several in vitro passages, were used for the infection studies. BALB/c mice (both male and female) were provided by the Pharmaceutical College, King Saud University, Kingdom of Saudi Arabia, and housed in specific pathogen-free conditions following the ethical guidelines of the Qassim University Research Ethics Committee (permission number: 20-03-20).
L. major promastigotes in the logarithmic phase were cultured in phenol-red-free RPMI 1640 medium (Invitrogen, USA) with 10% FBS in 96-well plates at 10^6 cells/mL (200 μL/well, counted with a hemocytometer). Test compounds were added at final concentrations of 50, 25, 12.5, 6.25, 3.13, 1.65, and 0.75 μg/mL. […] After incubation at 26 °C for 72 h, viable promastigotes were counted using an MTT colorimetric assay. The formed formazan was dissolved in a detergent and the absorbance was measured at 570 nm using an ELISA reader. IC50 values were derived from three independent experiments.

The subject of assay [1] is T. gondii RH strain tachyzoites. Description: Toxoplasma gondii cells drug testing assay (infection index in Vero cells, 72 h). Type of assay: cell-based. The following applies: for IC50: Toxoplasma gondii, Vero, IC50 ± SD, three independent experiments, 72 h; for SI = selectivity index (Vero/T. gondii): ratio IC50 Vero / IC50 T. gondii. The method, then:
Cells of the Vero cell line (ATCC® CCL81™, Manassas, VA, USA) were used to cultivate T. gondii RH strain tachyzoites. Vero cells were maintained in complete RPMI 1640 medium (Thermo Fisher Scientific, Waltham, MA, USA). For cell cultivation, 96-well plates were prepared with 5 × 10^3 cells per well in 200 μL of RPMI 1640 medium, then incubated at 37 °C and 5% CO2 for 24 h. The medium was then removed, and cells were washed with phosphate-buffered saline (PBS). Next, RPMI 1640 medium with 2% FBS and parasites at a 5:1 parasite-to-cell ratio were added. After a 5 h incubation at 37 °C and 5% CO2, cells were washed with PBS and subjected to further treatments. […] After incubation at 37 °C and 5% CO2 for 72 h, cells were washed with PBS, fixed in 10% formalin, and stained with 1% toluidine blue. An inverted photomicroscope was used to assess cell infection and to determine the infection index (number of infected cells out of 200 counted cells). The inhibition percentage was calculated as follows:Inhibition (%) = [(I Control − I Experimental)/I Control] × 100 where “I Control” represents the infection index of untreated cells, and “I Experimental” represents the infection index of cells treated with test compounds. The effects of the compounds on parasite growth are expressed as IC50 values derived from three independent experiments.

The subject of the next assay is macrophages. Description: Macrophage cytotoxicity (MTT assay, 72 h). Type of assay: cell-based, BALB/c mice. The following applies: Mus musculus, IC50 ± SD. The procedure:
Plates were incubated for 24 h at 37 °C in a 5% CO2 environment to allow infection and amastigote differentiation. Infected cells were then washed with PBS and overlaid with RPMI 1640 medium containing the test compounds at the same concentrations as applied for the experiments with promastigotes, followed by incubation at 37 °C and 5% CO2 for 72 h. […] The percentage of infected macrophages was determined microscopically after fixation, Giemsa staining, and medium removal. IC50 values were calculated from three independent experiments. To assess the test compounds’ cytotoxicity, MTT assays were performed. […] Negative control cells were only given media with 2% FBS and 1% DMSO. The cells were cultured for 4 h after the supernatant was disposed of, and 50 μL of RPMI 1640 media containing 14 μL MTT (5 mg/mL) was added. After removing the supernatant once again, 150 μL of DMSO was added. IC50 values were determined from three independent experiments.

Another assay deals with L. major amastigotes. Nature of the assay: Leishmania major amastigotes in peritoneal macrophages (percentage of infected macrophages, 72 h). Type of assay: cell-based. Conditions: Macrophage, IC50 ± SD. The method, then: as §1
Activity against amastigotes in macrophages was evaluated using peritoneal macrophages, which were harvested from 6–8-week-old BALB/c mice of different sex, and plated at 5 × 10^4 cells/well in 96-well plates containing phenol-red-free RPMI 1640 medium with 10% FBS. After 4 h at 37 °C and 5% CO2 to promote adhesion, cells were washed with PBS, and 200 μL of an L. major promastigote solution (10 promastigotes per macrophage) was added. Plates were incubated for 24 h at 37 °C in a 5% CO2 environment to allow infection and amastigote differentiation. Infected cells were then washed with PBS and overlaid with RPMI 1640 medium containing the test compounds at the same concentrations as applied for the experiments with promastigotes, followed by incubation at 37 °C and 5% CO2 for 72 h. […] IC50 values were calculated from three independent experiments.

Setting [2] is: Leishmania major, 72 h, IC50 ± SD, MTT.
The mark [3] stands for this setting: ratio IC50 macrophages / IC50 promastigotes.
The mark [4] stands for this setting: verbal statement in text on the L. major experiments.

On to `C(=C\c1ccccc1)/C=N/Nc1ccccc1` [CPH, Cinnamaldehyde phenyl hydrazone, reference compound], for which the IC50 (commonly the concentration needed to halve the response being measured) in the assay with Vero monkey kidney cells was 23.6 ± 3.9 µM; in the assay with L. major promastigotes (setting [2]), 83.7 ± 13.6 µM; in assay [1] it was 12.9 ± 2.1 µM; in the assay with macrophages, 78.4 ± 12.2 µM. Besides, the “SI (promastigotes) = selectivity index (macrophages/L. major promastigotes)” value (shortened to “SI (promastigotes) = selectivity index”) in the assay with L. major promastigotes (setting [3]) amounted to 0.94. Also, the “SI = selectivity index (Vero/T. gondii)” value in assay [1] is 1.8.
For `O=C/C=C/c1ccccc1` [Cinnamaldehyde, (2E)-3-phenylprop-2-enal], the IC50 in the assay on Vero monkey kidney cells was > 151 µM; in the assay on L. major promastigotes (Leishmania major; IC50 ± SD, MTT, 72 h), > 151 µM; in assay [1], > 151 µM; in the assay with macrophages, > 151 µM; in the assay on L. major amastigotes, > 151 µM. Also, the “activity against T. gondii (in words)” value in assay [1] is “inactive”.
Consider `O=C(N/N=C/C=C/c1ccccc1)c1cc2ccccc2cc1O` [Compound 2a], for which the IC50 is 7.3 ± 0.9 µM in the assay on Vero monkey kidney cells; 16.8 ± 2.8 µM in the assay on L. major promastigotes (setting [2]); 0.63 ± 0.08 µM in assay [1]; > 41.7 µM in the assay on macrophages; > 41.7 µM in the assay on L. major amastigotes. In addition, in the assay on L. major promastigotes (setting [3]), the “SI (promastigotes) = selectivity index” value is recorded as >2.5. The “activity against L. major promastigotes (in words)” value in the assay on L. major promastigotes (setting [4]) is reported as “moderate activity”. The “SI = selectivity index (Vero/T. gondii)” value in assay [1] was determined as 11.5.
On to `CN(C)c1ccc(/C=C/C=N/NC(=O)c2cc3ccccc3cc2O)cc1` [Compound 2b], for which the IC50 with Vero monkey kidney cells was 24.2 ± 2.7 µM; with L. major promastigotes (setting [2]), > 36.7 µM; in assay [1], 23.4 ± 3.9 µM; in the assay on macrophages, > 36.7 µM; in the assay on L. major amastigotes it was > 36.7 µM. For the same compound, the “SI = selectivity index (Vero/T. gondii)” value in assay [1] was 1.0.
For `O=C(N/N=C/C=C/c1ccccc1)c1ccccc1O` [Compound 2c], the IC50 in the assay on Vero monkey kidney cells was 19.5 ± 2.6 µM; in the assay on L. major promastigotes (setting [2]), 47.7 ± 6.5 µM; in assay [1], 1.1 ± 0.2 µM; in the assay on macrophages it was 43.6 ± 8.6 µM; with L. major amastigotes it was > 49.6 µM. In addition, the “SI (promastigotes) = selectivity index” value with L. major promastigotes (setting [3]) is reported as 0.91. The “SI = selectivity index (Vero/T. gondii)” value in assay [1] came to 17.3.
With `CN(C)c1ccc(/C=C/C=N/NC(=O)c2ccccc2O)cc1` [Compound 2d, (E)-N′-(4-Dimethylaminocinnamylidene)-2-hydroxybenzoylhydrazide], the IC50 with Vero monkey kidney cells is 22 ± 3 µM; in the assay on L. major promastigotes (setting [2]), > 42.7 µM; in assay [1], 3.9 ± 0.5 µM; with macrophages, > 42.7 µM; in the assay with L. major amastigotes, > 42.7 µM. For the same compound, in assay [1], the “activity against T. gondii (in words)” value was “reasonable activity”. Further, the “SI = selectivity index (Vero/T. gondii)” value in assay [1] amounted to 5.7.
Regarding `O=C(N/N=C/C=C/c1ccccc1)c1ccccc1F` [Compound 2g], the concentration for half-maximal inhibition (IC50) with Vero monkey kidney cells was > 74.6 µM; with L. major promastigotes (setting [2]) it was > 74.6 µM; in assay [1], 69.4 ± 10 µM; in the assay with macrophages, > 74.6 µM; with L. major amastigotes, > 74.6 µM.
Consider `O=C(N/N=C/C=C/c1ccccc1)c1ccncc1` [Compound 2l], for which the IC50 in the assay with Vero monkey kidney cells is 51.3 ± 7.8 µM; in the assay with L. major promastigotes (setting [2]), 51.3 ± 9.3 µM; in assay [1], 52.1 ± 8.3 µM; in the assay on macrophages it was > 52.5 µM; in the assay on L. major amastigotes, > 52.5 µM. Also, the “SI (promastigotes) = selectivity index” value in the assay with L. major promastigotes (setting [3]) is listed as >1.0. The “SI = selectivity index (Vero/T. gondii)” value in assay [1] amounted to 0.99.
In the case of `CN(C)c1ccc(/C=C/C=N/NC(=O)c2ccncc2)cc1` [Compound 2m], the IC50 is 41.5 ± 7.2 µM in the assay on Vero monkey kidney cells; > 44.8 µM with L. major promastigotes (setting [2]); 31.6 ± 6.2 µM in assay [1]; > 44.8 µM with macrophages; > 44.8 µM in the assay on L. major amastigotes. For the same compound, the “SI = selectivity index (Vero/T. gondii)” value in assay [1] is 1.3.
For the compound `CC(C)Cc1ccc(CC(C)/C=N/NC(=O)c2cc3ccccc3cc2O)cc1` (stereo not drawn) [Compound 3a, N′-2-Methyl-3-[4-(2-methylpropyl)phenyl]propanylidene-3-hydroxy-2-naphthoic hydrazide], the IC50 is 41.3 ± 6.9 µM with Vero monkey kidney cells; > 51.5 µM with L. major promastigotes (setting [2]); 46.9 ± 8.4 µM in assay [1]; > 51.5 µM in the assay on macrophages; > 51.5 µM in the assay on L. major amastigotes. Besides, the “SI = selectivity index (Vero/T. gondii)” value in assay [1] was 0.88.
Consider `CC(C)Cc1ccc(CC(C)/C=N/NC(=O)c2cccc(F)c2)cc1` (stereo not drawn) [Compound 3e, N′-2-Methyl-3-[4-(2-methylpropyl)phenyl]propanylidene-3-fluorobenzoylhydrazide], for which the IC50 with Vero monkey kidney cells is 53.5 ± 8.5 µM; with L. major promastigotes (setting [2]), > 58.8 µM; in assay [1], 45.3 ± 6.9 µM; with macrophages, > 58.8 µM; in the assay with L. major amastigotes, > 58.8 µM. For the same compound, the “SI = selectivity index (Vero/T. gondii)” value in assay [1] stood at 1.2.
Turning to `CC(C)c1cccc(C(C)CC=NNC(=O)c2cc3ccccc3cc2O)c1` (stereo not drawn) [Compound 4a, N′-3-(3-Isopropylphenyl)butanylidene-3-hydroxy-2-naphthoic hydrazide], the half-inhibitory concentration (IC50) in the assay with Vero monkey kidney cells was 39.6 ± 4.8 µM; in the assay on L. major promastigotes (IC50 ± SD, MTT, 72 h), 9.6 ± 2.4 µM; with L. major promastigotes (setting [2]), < 10 µM; in assay [1], 14.4 ± 2.1 µM; with macrophages, > 53.4 µM; in the assay on L. major amastigotes, > 53.4 µM. Moreover, the “activity against L. major promastigotes (in words)” value in the assay on L. major promastigotes (setting [4]) was “moderate activity”. Besides, the “SI = selectivity index (Vero/T. gondii)” value in assay [1] is recorded as 2.8.
On to `CC(C)c1cccc(C(C)C/C=N/NC(=O)c2ccccc2O)c1` (stereo not drawn) [Compound 4b, N′-3-(3-Isopropylphenyl)butanylidene-2-hydroxybenzoylhydrazide], for which the half-inhibitory concentration (IC50) with Vero monkey kidney cells was determined as 19.2 ± 2.2 µM; with L. major promastigotes (setting [2]), 39.5 ± 5.9 µM; in assay [1], 21 ± 3.5 µM; with macrophages, 50.3 ± 9.4 µM; in the assay on L. major amastigotes, 45.4 ± 7.9 µM. Moreover, the “SI (promastigotes) = selectivity index” value in the assay with L. major promastigotes (setting [3]) was determined as 1.3. In addition, the “SI = selectivity index (Vero/T. gondii)” value in assay [1] is on record as 0.92.
For `CC(C)c1cccc(C(C)C/C=N/NC(=O)c2ccccc2F)c1` (stereo not drawn) [Compound 4d, N′-3-(3-Isopropylphenyl)butanylidene-2-fluorobenzoylhydrazide], the IC50 (in the assay with Vero monkey kidney cells; in the assay with L. major promastigotes (setting [2]); in assay [1]; with macrophages; in the assay with L. major amastigotes) was > 61.3 µM throughout.
